Assay results from paper PMC5320730, “Synthetic curcumin derivative DK1 possessed G2/M arrest and induced apoptosis through accumulation of intracellular ROS in MCF-7 breast cancer cells” (Cancer Cell International, 2017).

How the values were obtained:
MCF-7 cells [1] = settings: cited from earlier work
[2] = system: active caspase 9 in MCF-7 cells; assay: Active caspase 9 staining (CaspGLOW), fluorometry; format: cell-based, human; settings: MCF-7, 25 µM
Method: (§1) The level of active caspase 9 and cytochrome c of the control and DK1 treated MCF-7 were quantified using CaspGLOW Red Active Caspase-9 staining kit (BioVision, USA) and human cytochrome c platinum ELISA (eBioscience Affymetrix, USA), respectively according to manufacturers’ protocol. Fold change of caspase 9 and cytochrome c was calculated by dividing fluorescence intensity or absorbance of DK1 treated MCF-7 with untreated control MCF-7.

MDA-MB-231 cells = assay: MTT cell viability assay, MDA-MB-231; format: cell-based, human; settings: for IC50: Homo sapiens, MDA-MB-231, MTT
Method: (§2) Promyelocytic leukemia HL60, hepatoblastoma HepG2, breast cancer MCF-7 and MDA-MB-231 cells were purchased from ATCC (USA) and cultured in RPMI-1640 media (Sigma, USA), supplemented with 10% fetal bovine serum (FBS) (PAA, USA). Normal epithelial MCF-10A cells (ATCC, USA) was maintain in DMEM-F12 (Sigma, USA) supplemented with hydrocortisone (0.5 μg/mL), insulin (10 μg/mL), human epidermal growth factor (hEGF) (20 ng/mL) (Sigma, USA) and 10% FBS (PAA, USA).
(§3) MTT cell viability assay was used to evaluate the effect of DK1 on viability of HL-60, HepG2, MCF-7, MDA-MB-231 and MCF-10A cells. Briefly, each type of cells (8 × 10^4cells/well) was seeded in 96-well plate in 37 °C CO2 incubator overnight. Then, DK1 was added at concentration ranging between 200 and 3.125 µM by twofold serial dilution. Untreated control was prepared simultaneously. After that, the cells were incubated for 24, 48 and 72 h at 37 °C in 5% CO2 incubator. After the incubation period, all well was added with 20 μL of MTT solution (5 mg/mL) and further incubated for 3 h. Subsequently, 170 μL of supernatant from each well was discarded, 100 μL of dimethyl sulfoxide (DMSO) was added to solubilize the purple formazan crystal and the absorbance was measured at a wavelength of 570 nm by Enzyme-linked immunosorbent assay (ELISA) plate reader (Bio-tek instruments, USA). All cell lines were assayed for three biological replicates each with triplicates. Percentage of cell viability was calculated using the following formula: Cell viability%=OD sample/OD control×100%
(§4) IC50 value (concentration of DK1 that reduce 50% of cell viability compared to control cell) was determined from the graph of cell viability (%) vs DK1 concentration. Subsequently, selective index, which indicating selectivity of DK1 against cancerous and normal breast cell lines, was calculated by: Selective indexSI=IC50of DK1on normal MCF-10A cell line/IC50on breast cancerous cell lineHL60/HepG2/MCF-7/MDA-MB-231

MCF-7 cells [3] = assay: MTT cell viability assay, MCF-7; format: cell-based, human; settings: for IC50: Homo sapiens, MCF7, MCF-7, MTT
Method: as §2, §3, §4

MCF-10A cells = assay: MTT cell viability assay, normal MCF-10A; format: cell-based; settings: Homo sapiens
Method: as §2, §3, §4

[4] = system: CDC2 and phospho-CDC2 (Tyr15) in MCF-7 cells; assay: Western blot analysis of CDC2 and p-CDC2 (Tyr15); format: cell-based, human; settings: MCF-7, 25 µM, 48 and 72 h
Method: (§5) Total protein was extracted from harvested cell with Radioimmunoprecipitation assay (RIPA) buffer supplemented with phosphatase inhibitor cocktail (Roche, Canada) and the concentration was quantified by Bradford assay (Sigma, USA). Then, 100 μg of extracted protein was subjected to sodium dodecyl sulfate polyacrylamide gel electrophoresis (SDS-PAGE) (Bio-Rad, USA), transferred to nitrocellulose membrane, block with 0.5% skimmed milk overnight, washed with Tris-buffered saline tween (TBST) buffer and incubated with primary antibodies (anti-CDC2, anti-pCDC2 (Tyr15), anti-p53, and anti-β-actin at a dilution of 1:1000 (Abcam, USA) for 1 h. After that, membranes were washed, incubated with 1:5000 diluted goat anti-rabbit IgG H&L conjugated to […] (Abcam, USA) and developed under chemiluminescence condition (Super Signal West Pico, Pierce, USA) using the ChemiDoc XRS (Bio-Rad, USA). Differential level of evaluated protein in control and DK1 treated MCF-7 was calculated based on the bands intensity analyzed using the Quantity One 1D Analysis software (Bio-rad, USA).

ROS in MCF-7 cells = assay: Intracellular reactive oxygen species (ROS) detection, DCFH-DA; format: cell-based, human; settings: MCF-7, 25 µM
Method: (§6) Harvested cell was subjected to two times of freeze and thaw in 100 μL of PBS. The lysed cell was then pelleted and the supernatant was subjected to GSH and ROS quantification using Glutathione assay kit (Sigma, USA) and OxiSelect ROS assay kit (Cell Biolabs, USA) according to manufacturers’ protocol.
(§7) For GSH quantification, 10 μL of cell lysate supernatant was added with 150 μL of working solution (1.5 mg/mL DTNB solution, 6 units/mL glutathione reductase and 1× assay buffer), incubated for 5 min and added with 50 μL of NADPH solution (0.16 mg/mL). The absorbance was read at a wavelength of 412 nm by ELISA plate reader (Bio-Tek instrument, USA) for every minute in duration of 5 min. For intracellular ROS quantification, supernatant was added with 10 μM DCFH-DA for 30 min at 37 °C. Then, the fluorescence intensity of DCFH-DA was measured using microplate fluorometer (Thermo Scientific, USA) with a 485/538 nm filter. Fold change of GSH and ROS was calculated by dividing absorbance or fluorescence intensity of DK1 treated MCF-7 with untreated control MCF-7.

MCF-7 cells [5] = assay: Flow cytometry cell cycle analysis (PI); format: cell-based, human; settings: MCF-7, 25 µM
Method: Cell cycle progression of control and DK1 treated MCF-7 was analysed using BD FACS Calibur flow cytometer (Becton–Dickinson, USA). Briefly, harvested cells were added with 250 μL of trypsin buffer with 10 min incubation, followed by 200 μL of trypsin inhibitor with RNase buffer with 10 min incubation, and finally stained with 200 μL of propidium iodide (PI) from BD Cycletest Plus kit (Becton–Dickinson, USA). All stained cells were subjected to BD FACS Calibur flow cytometer analysis using BD Cell Quest Pro software (Becton–Dickinson, USA).

GSH in MCF-7 cells = assay: Intracellular glutathione (GSH) quantification; format: cell-based, human; settings: MCF-7, 25 µM
Method: as §6, §7

p53 in MCF-7 cells = assay: Western blot analysis of p53; format: cell-based, human; settings: MCF-7, 25 µM, western blot
Method: as §5

MCF-7 cells [6] = assay: Flow cytometry AnnexinV-FITC/PI apoptosis analysis; format: cell-based, human; settings: MCF-7, 25 µM, 72 h, AnnexinV/PI
Method: Apoptosis of DK1 treated MCF-7 was compared with the control cell by Flow cytometry AnnexinV-FITC/PI apoptosis assay. Briefly, harvested cells were resuspended in 100 μL of 1× binding buffer and stained with 5 μL each of AnnexinV-FITC and propidiumiodide. After 15 min of incubation, the cells were added with 400 μL of 1× binding buffer and subjected to BD FACS Calibur flow cytometer analysis using BD Cell Quest Pro software (Becton–Dickinson, USA).

[7] = system: PLK1, p21 and WEE-1 expression in MCF-7 cells; assay: qRT-PCR of cell cycle related genes; settings: MCF-7, 25 µM, qRT-PCR, p < 0.05
HL-60 cells = assay: MTT cell viability assay, HL-60; format: cell-based; settings: Homo sapiens, HL-60, MTT
Method: as §2, §3, §4

[8] = system: cytochrome c in MCF-7 cells; assay: Cytochrome c ELISA; format: cell-based, human; settings: MCF-7, 25 µM
Method: as §1

HepG2 cells = assay: MTT cell viability assay, HepG2; format: cell-based; settings: Homo sapiens
Method: as §2, §3, §4

MCF-7 cells [9] = assay: Fluorescent microscopy with acridine orange/propidium iodide staining, count of 200 cells; format: cell-based, human; settings: MCF-7, 25 µM, 72 h, AO/PI, scoring of 200 cells
Method: Prior to harvest the cell, morphology of control and DK1 treated MCF-7 was observed using light microscope. In addition, harvested control and treated MCF-7 cells were resuspended in 100 μL of Phosphate buffer saline (PBS), stained with 10 μg/mL of Acridine orange (AO) and propidium iodide (PI) and viewed under fluorescent microscope (Nikon, Japan).

In the case of `COc1ccc(/C=C/C(=O)c2c(O)cc(OC)cc2OC)cc1` [flavokawain A], the SI value (MCF-7 cells [1]; on MCF-7) is listed as 3.78.

In the case of 4-hydroxy tamoxifen, the SI (MCF-7 cells [1]; normal vs cancerous cell line) is listed as less than 2.

In the case of `O=C(/C=C(\O)c1ccccc1)c1ccccc1O` [DK1, (Z)-3-hydroxy-1-(2-hydroxyphenyl)-3-phenylprop-2-en-1-one], the “promotion of active caspase 9 compared to control” value ([2]; 48 h) is reported as ~ 1.9 fold, the “promotion of active caspase 9 compared to control” value ([2]; 72 h) is reported as ~ 2.4 fold and the IC50 (MDA-MB-231 cells; 24 h) is reported as 104 ± 5.23 µM. The IC50 (MDA-MB-231 cells; 48 h) was 45.8 ± 4.66 µM, the IC50 (MDA-MB-231 cells; 72 h) was 37.5 ± 4.82 µM and the “Selective index of MCF-10A/MDA” value (MDA-MB-231 cells; IC50 MCF-10A / IC50 MDA-MB-231, 24 h) was greater than 2.00. The “Selective index of MCF-10A/MDA” value (MDA-MB-231 cells; IC50 MCF-10A / IC50 MDA-MB-231, 48 h) was 2.72, the “Selective index of MCF-10A/MDA” value (MDA-MB-231 cells; IC50 MCF-10A / IC50 MDA-MB-231, 72 h) was 2.77 and the SI values (MDA-MB-231 cells; MDA-MB-231, overall statement) was “higher than 2”. For the same compound, the IC50 (MCF-7 cells [3]; 24 h) was 96.8 ± 4.87 µM, the IC50 (MCF-7 cells [3]; 48 h) was 33.3 ± 3.5 µM and the IC50 (MCF-7 cells [3]; 72 h) was 25 ± 3.71 µM. The “Selective index of MCF-10A/MCF-7” value (MCF-7 cells [3]; IC50 MCF-10A / IC50 MCF-7, 24 h) was greater than 2.17, the “Selective index of MCF-10A/MCF-7” value (MCF-7 cells [3]; IC50 MCF-10A / IC50 MCF-7, 48 h) was 3.75 and the “Selective index of MCF-10A/MCF-7” value (MCF-7 cells [3]; IC50 MCF-10A / IC50 MCF-7, 72 h) was 4.17. For the same compound, the SI values (MCF-7 cells [3]; MCF-7, overall statement) was “higher than 2”, the IC50 (MCF-10A cells; 24 h) was greater than 208 µM and the IC50 (MCF-10A cells; 48 h) was 126 ± 3.67 µM. For the same compound, the IC50 (MCF-10A cells; 72 h) was 104 ± 5.21 µM, the CDC2 protein level [4] was “reduction” and the “phospho-CDC2 (Tyr15) protein level” value [4] was “accumulation”. The “generation of ROS compared to control” value (ROS in MCF-7 cells; 48 h) was ~ 1.9 fold, the “generation of ROS compared to control” value (ROS in MCF-7 cells; 72 h) was ~ 2.6 fold and the “percentage of cell population in G2/M phase” value (“percentage of cell population” below) (MCF-7 cells [5]; 24 h (control ~18%)) was ~ 25%. For the same compound, the “percentage of cell population” value (MCF-7 cells [5]; 48 h (control ~18%)) was ~ 26%, the “percentage of cell population” value (MCF-7 cells [5]; 72 h (control ~18%)) was ~ 31% and the “reduction of GSH level compared to control” value (GSH in MCF-7 cells; 48 h) was ~ 2.2 fold. For the same compound, the “reduction of GSH level compared to control” value (GSH in MCF-7 cells; 72 h) was ~ 3.3 fold, the “promotion of p53 protein compared to control” value (p53 in MCF-7 cells; 48 h) was ~ 1.6 fold and the “promotion of p53 protein compared to control” value (p53 in MCF-7 cells; 72 h) was ~ 2.0 fold. For the same compound, the early apoptosis (MCF-7 cells [6]) was ~ 14%, the late apoptosis (MCF-7 cells [6]) was ~ 39% and the “expression of PLK1 compared to control” value [7] was “downregulated”. The “expression of WEE-1 compared to control” value [7] was “enhanced”, the “expression of p21 compared to control” value [7] was “enhanced” and the IC50 (HL-60 cells; 24 h) was 138 ± 2.16 µM. For the same compound, the IC50 (HL-60 cells; 48 h) was 124 ± 3.27 µM, the IC50 (HL-60 cells; 72 h) was 73.4 ± 2.65 µM and the “promotion of cytochrome c compared to control” value ([8]; 48 h) was ~ 2.1 fold. The “promotion of cytochrome c compared to control” value ([8]; 72 h) was ~ 2.8 fold, the IC50 (HepG2 cells; 24 h) was greater than 150 µM and the IC50 (HepG2 cells; 48 h) was 138 ± 4.13 µM. For the same compound, the IC50 (HepG2 cells; 72 h) was 64.2 ± 3.12 µM, the cells undergone apoptosis (MCF-7 cells [9]) was ~ 12.5% and the “cells undergone late apoptosis/necrosis” value (MCF-7 cells [9]) was ~ 31%.
